Assay results as given in ChEMBL document CHEMBL1201862, “PubChem BioAssay data set” (2004).
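In this assay, cells in 96-well plates receive the compound at five concentrations for 48 hours. Endpoints are linearly interpolated between the surrounding concentrations. Abbreviation: GI50, concentration required for 50% inhibition of growth.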 Calls of active or inactive are those of the source. No stated cut-off is given here; in the data, active = GI50 up to about 1.1 µM and inactive = higher. Residues, ends and D or L forms follow the SMILES beside them. *: point of attachment. Boc = CC(C)(C)OC(=O)*

Experiments:
Assay in all cases: NCI tumour cell line growth inhibition, 48 h
[1] = tested on: OVCAR-8
[2] = tested on: DU-145
[3] = tested on: SK-OV-3
[4] = tested on: TK-10
[5] = tested on: MDA-MB-435
[6] = tested on: T47D
[7] = tested on: COLO 205
[8] = tested on: RXF 393
[9] = tested on: SF-539
[10] = tested on: BT-549
[11] = tested on: M14
[12] = tested on: MDA-N
[13] = tested on: NCI-H226
[14] = tested on: MDA-MB-231
[15] = tested on: A549
[16] = tested on: K562
[17] = tested on: HL-60
[18] = tested on: OVCAR-3
[19] = tested on: A498

Measured: GI50

Cc1cc(NS(=O)(=O)c2ccc(NC(=O)c3cccc4c(NNc5ccc(S(N)(=O)=O)cc5)c5ccccc5nc34)cc2)no1
inactive: [1] 47.9 µM | [2] 86.5 µM | [3] 36.3 µM | [4] 83.2 µM | [5] 75.7 µM | [6] 26 µM | [7] 45.1 µM | [8] 41.5 µM | [9] > 100 µM | [10] 61.5 µM | [11] 67.1 µM | [12] 52.1 µM | [13] 34 µM | [14] 54.5 µM | [15] > 100 µM | [16] 33.4 µM | [17] 31 µM | [18] 26.7 µM

O=C(O)CN1CCNCCN(CC(=O)O)CCN(CC(=O)O)CCNCC1
inactive: [1] 96.2 µM | [2] > 100 µM | [3] > 100 µM | [19] 71.9 µM | [4] > 100 µM | [5] > 100 µM | [6] > 100 µM | [7] 64.1 µM | [9] 63.7 µM | [10] > 100 µM | [11] > 100 µM | [12] > 100 µM | [13] > 100 µM | [14] > 100 µM | [15] > 100 µM | [16] 85.3 µM | [17] 25.9 µM | [18] 76 µM

COC(=O)c1c(O)ccc2c1c1c(n2CCc2ccccc2)C(=O)c2ccccc2C1
inactive: [1] 36.3 µM | [2] 31.8 µM | [3] 22.5 µM | [19] 19.2 µM | [4] 34.3 µM | [5] 18.2 µM | [7] 14.6 µM | [8] 13.3 µM | [9] 24.8 µM | [10] 24.4 µM | [11] 22.3 µM | [12] 24.4 µM | [13] 16.3 µM | [14] 19.5 µM | [15] 23.5 µM | [16] 37.6 µM | [17] 28.9 µM | [18] 16.1 µM

COC(=O)CN(CC(=O)NCCNC(=O)OC(C)(C)C)C1CCCCC1N(CC(=O)OC)CC(=O)OC (configuration not stated)
inactive: [1] > 100 µM | [2] > 100 µM | [3] > 100 µM | [19] > 100 µM | [4] > 100 µM | [5] > 100 µM | [6] > 100 µM | [7] > 100 µM | [9] > 100 µM | [10] > 100 µM | [12] > 100 µM | [13] 48 µM | [14] > 100 µM | [15] > 100 µM | [16] > 100 µM | [17] > 100 µM | [18] > 100 µM

COC(=O)/C=C/c1cnc2c(c1)oc(=O)n2C
inactive: [1] > 100 µM | [2] > 100 µM | [3] > 100 µM | [19] > 100 µM | [4] > 100 µM | [5] > 100 µM | [6] > 100 µM | [7] > 100 µM | [9] > 100 µM | [10] > 100 µM | [11] > 100 µM | [12] > 100 µM | [13] > 100 µM | [14] > 100 µM | [15] > 100 µM | [16] > 100 µM | [17] > 100 µM | [18] > 100 µM

COc1cc(OC)nc(-n2c(N)c(C#N)c3ccc([N+](=O)[O-])cc3c2=O)n1
inactive: [1] > 100 µM | [2] > 100 µM | [19] > 100 µM | [4] > 100 µM | [5] > 100 µM | [6] > 100 µM | [7] > 100 µM | [9] > 100 µM | [10] > 100 µM | [11] > 100 µM | [12] > 100 µM | [14] > 100 µM | [15] > 100 µM | [17] > 100 µM | [18] > 100 µM

CCOc1ccc(N/C(=C(/C(Cl)=C(/Cl)N2CCCCC2)[N+](=O)[O-])n2nnc3ccccc32)cc1
inactive: [2] 19.2 µM | [3] 28.9 µM | [19] 18.3 µM | [4] 32.8 µM | [5] 8.49 µM | [6] 17.3 µM | [7] 20.6 µM | [9] 16.4 µM | [10] 17.7 µM | [11] 14.9 µM | [12] 16.3 µM | [13] 27.9 µM | [14] 20.9 µM | [15] 21.5 µM | [16] 17.4 µM | [18] 17.4 µM

O=C(Cn1c(=O)oc2ccc(C(=O)c3ccccc3Cl)cc21)c1ccc([N+](=O)[O-])cc1
inactive: [1] 24.7 µM | [2] 42 µM | [3] 21.9 µM | [19] 30.1 µM | [4] 51.1 µM | [5] 17.7 µM | [6] 8.11 µM | [7] 20.6 µM | [9] 28.8 µM | [10] 19.1 µM | [11] 18.4 µM | [12] 18.1 µM | [13] 34.2 µM | [14] 20.8 µM | [15] 25.2 µM | [16] 14.9 µM | [17] 11.2 µM | [18] 17 µM

O=c1cc(NCC2CCCCC2)[nH]c(=O)[nH]1
inactive: [1] > 100 µM | [2] > 100 µM | [19] > 100 µM | [4] > 100 µM | [5] > 100 µM | [7] > 100 µM | [8] > 100 µM | [9] > 100 µM | [10] > 100 µM | [11] > 100 µM | [12] > 100 µM | [13] > 100 µM | [14] > 100 µM | [15] > 100 µM | [16] > 100 µM | [17] > 100 µM | [18] > 100 µM

COC(=O)C(Cc1c[nH]c2ccccc12)NC(=O)C(Cc1c[nH]c2ccccc12)NC(=O)C(Cc1c[nH]c2ccccc12)NC(=O)C(Cc1c[nH]c2ccccc12)NC(=O)OC(C)(C)C (configuration not stated) (Boc-WWWW-OMe; configuration not given here)
inactive: [1] 26.9 µM | [2] 43.2 µM | [4] 34.7 µM | [5] 23.4 µM | [6] 19.7 µM | [10] 17.9 µM | [11] 30.1 µM | [12] 18.5 µM | [13] 45.7 µM | [14] > 100 µM | [15] 39.4 µM | [16] 4.8 µM | [17] 6.34 µM | [18] 15.1 µM

Cc1cccc(CC(Cc2c(C)cccc2C(=O)O)C(=O)O)c1 (configuration not stated)
inactive: [1] > 100 µM | [2] > 100 µM | [3] > 100 µM | [19] > 100 µM | [4] > 100 µM | [5] > 100 µM | [7] > 100 µM | [8] > 100 µM | [9] > 100 µM | [10] > 100 µM | [11] > 100 µM | [12] > 100 µM | [13] > 100 µM | [14] > 100 µM | [15] > 100 µM | [16] > 100 µM | [17] > 100 µM | [18] > 100 µM
